Results from patent US8722729B2, “Unsaturated fatty acid monoesters and diesters on ascorbic acid and cosmetic uses thereof” (Pierre Fabre Dermo-Cosmetique, priority 2009, dated 2014).
Entries after “also recorded” stand apart in the source; their conditions may differ.

Tests used:
[1] = biological target: T1, hyaluronidase of bovine origin (BTH, Bovine Testis hyaluronidase) (Bos taurus, UniProt Q2YDK3); experiment: Assay of hyaluronidase activity (residual HA, HA-ELISA); assay type: biochemical
T1 sequence (Q2YDK3 1-553): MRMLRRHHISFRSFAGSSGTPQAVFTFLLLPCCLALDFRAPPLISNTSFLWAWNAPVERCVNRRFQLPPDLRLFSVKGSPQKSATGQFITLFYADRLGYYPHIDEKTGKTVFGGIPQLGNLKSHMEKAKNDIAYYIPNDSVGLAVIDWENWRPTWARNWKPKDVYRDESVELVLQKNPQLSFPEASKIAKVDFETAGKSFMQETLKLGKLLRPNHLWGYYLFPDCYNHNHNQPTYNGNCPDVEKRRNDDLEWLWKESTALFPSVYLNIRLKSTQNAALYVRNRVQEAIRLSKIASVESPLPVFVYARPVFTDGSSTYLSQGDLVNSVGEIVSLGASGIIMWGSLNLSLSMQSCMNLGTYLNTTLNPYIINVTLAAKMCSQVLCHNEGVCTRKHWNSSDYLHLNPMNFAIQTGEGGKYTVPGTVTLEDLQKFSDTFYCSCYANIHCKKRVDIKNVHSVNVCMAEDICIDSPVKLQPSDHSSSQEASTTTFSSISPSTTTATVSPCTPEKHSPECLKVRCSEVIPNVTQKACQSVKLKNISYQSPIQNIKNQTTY
Procedure: Hyaluronidase activity is measured by the assay of residual hyaluronic acid (HA). The substrate is fixed to a carrier then placed in the presence of an enzyme and a quantity of compound to be tested. The residual HA i.e. the non-hydrolyzed HA is assayed using a HA-Elisa detection system: Hyaluronan enzyme-linked immunosorbent assay (Echelon Biosciences®).
0.5 units of hyaluronidase of bovine origin (BTH, Bovine Testis hyaluronidase) were pre-incubated at 37° C. with the compound to be tested. This mixture was deposited on the HA fixed to the surface of a microplate well. The enzymatic reaction took place at pH 7.2n at 37° C. Washing was followed by a recognition step of residual HA by hyaluronectin (NH). The quantity of bonded NH was measured by ELISA using an anti-NH antibody conjugated with alkaline phosphatase. The p-nitrophenyl phosphate disodium salt (pnNpp) substrate of the phosphatase allows spectrometric detection at 405 nm. (Delpech B et al., Analytical Biochemistry 149, 555(565 (1985); Robert Stern et al. Analytical Biochemistry 251, 263-269 (1997)). OD intensity was correlated with the quantity of residual HA. The quantity of residual HA is directly linked to enzymatic activity. In the presence of an inhibitor, the larger the quantity of residual HA the more the sample is inhibiting. A percentage inhibition of hyaluronidase will be expressed.
Therefore the net enzymatic activities were calculated which represent the difference in mean gross activity without enzyme and the gross activity of the enzyme with or without the compound to be tested.
The percentage enzymatic inhibition related to the compound to be tested was calculated as follows: % inhibition=(Maximum net enzymatic activity)−Net enzymatic activity in the presence of the compound to be tested)/Maximum net enzymatic activity.
where the maximum net enzymatic activity represents the mean net enzymatic activity of 0.5 U.

B16-F10 cells = experiment: Assay of melanin in B16-F10 cells (colorimetric, α-MSH stimulated); assay type: cell-based, murine; conditions: for inhibition at 50 µM / inhibition at 100 µM / IC50 / inhibition at 10 µM / inhibition at 20 µM: Mus musculus; for inhibition at 50 µM / inhibition at 100 µM / inhibition at 10 µM / inhibition at 20 µM: B16-F10, 72 hours, read-out: Percentage inhibition of intracellular melanin; for IC50: B16-F10, α-MSH stimulated, read-out: IC50 intracellular melanin
Procedure: Similarly, to evidence the depigmenting activity of the compounds of general formula (I) according to the invention, the effect of these compounds was measured on the synthesis of melanin by colorimetric assay on a cell line of murine melanomas: line B16-F10.
This is a test to measure the synthesis of melanin by colorimetric assay on a cell line of murine melanomas: line B16-F10. This test allows the evaluation of the depigmenting property of active ingredients.
The B16-F10 cells were seeded onto 96-well plates in DMEM medium supplemented with FCS (fetal calf serum) and incubated 24 hours at 37° C., 5% CO2. The cells were then stimulated with α-MSH (to stimulate the synthesis of melanin, the stimulation observed was about 150%) and treated 72 hours with the active ingredients to be tested. Each concentration of active ingredient was tested at least in triplicate. Total melanin followed by intracellular melanin dissolved in lysis buffer were then assayed by absorbency reading at 405 nm. The total proteins were determined in the lysate and the results are expressed in mg melanin/mg proteins. The percentage activity was calculated as follows: […]
A negative value indicates an inhibition, whereas a positive value indicates induced synthesis of melanin.

[2] = system: Human dermal papilla cells; experiment: In vitro stimulation of the proliferation of dermal papilla cells (BrdU incorporation); assay type: cell-based
Procedure: Human dermal papilla cells (Promocell) were placed in culture and held in early passage culture in DMEM medium supplemented with 10% FCS. They were then seeded in a 96-well plate in DMEM medium supplemented with 10% FCS for 12 h. The culture medium was replaced by serum-free DMEM medium then by DMEM supplemented with 1% FCS and molecules 1, 2, 3 and 4 at the different tested concentrations After incubation for 60 h, cell proliferation was evaluated by incorporation of BrdU.
The diagrams in appended FIG. 1 show the increase in BrdU incorporation and the stimulated cellular proliferation of the cells in the presence of the different molecules (as a percent of the control).

human hair follicle [3] = experiment: Stimulation of the growth of the human hair follicle (Philpott culture); assay type: cell-based; conditions: 15 μM; for D4 % activity (hair growth stimulation compared with the control) / D4 % growth: 4 days' culture; for D8 % activity (hair growth stimulation compared with the control) / D8 % growth: 8 days' culture
Procedure: (§1) Biopsies of the occipital region of a human scalp were obtained from operative waste. The hair follicles were isolated by micro-dissection under binocular magnification. They were individually placed in culture following Philpott's technique (Philpott M P et al, J Cell Sci. 97:463-471, 1990). The hair follicles in anagen phase were incubated in 24-well culture dishes in the presence of William's medium supplemented with 10 μg/mL Insulin, 10 μg/mL Transferrin, 10 ng/mL Hydrocortisone, 1 mM Glutamax I, 100 U/mL Penicillin, 100 μg/mL Streptomycin, 250 ng/mL Amphotericin B and in the presence of molecules 3 or 4 for 11 days. The incubation medium was regularly renewed. The lengthening (in μm) of each hair follicle was measured at 4 and 8 days' culture in captured images of the hair follicles.
The diagrams in appended FIG. 2 show the effect of molecules 3 and 4 on the lengthening of hair follicles after incubation for 4 days and for 8 days.
The following table (Table 5) gives the growth percentages obtained for each treatment condition and the percentages for stimulated hair growth obtained with molecules 3 and 4 compared with the control.

human hair follicle [4] = experiment: Evaluation of hair bulb degeneration (apoptotic follicles at D11); assay type: cell-based
Procedure: as §1
The degeneration of the follicle when kinetics cease after 11 culture days, is evaluated by observation of morphological damage of the hair bulb (rounding, deformation). The percentage apoptosis is calculated by counting the number of apoptotic hair follicles relative to the total number of follicles

[5] = 0.5 U BTH, read-out: Enzymatic inhibition (mean as a percentage)

Row | SMILES | Effect on hyaluronidase [1] | inhibition at 10 µM [1, 5] [%] | inhibition at 50 µM [1, 5] [%] | Inhibition of the synthesis of intracellular melanin compared with vitamin C (B16-F10 cells) | inhibition at 50 µM (B16-F10 cells) [%] | inhibition at 100 µM (B16-F10 cells) [%] | IC50 (B16-F10 cells) [µM] | inhibition at 10 µM (B16-F10 cells) [%] | inhibition at 20 µM (B16-F10 cells) [%] | Proliferation of dermal papilla cells [2] | D4 % activity (hair growth stimulation compared with the control) (human hair follicle [3]) [%] | D4 % growth (human hair follicle [3]) [%] | D8 % activity (hair growth stimulation compared with the control) (human hair follicle [3]) [%] | D8 % growth (human hair follicle [3]) [%] | further results
1 | CCCCCCCCCCCCCCCC(=O)OC[C@H](O)[C@H]1OC(=O)C(O)=C1O [6-ascorbyl palmitate, reference compound] | advantageously inhibits hyaluronidase, from 10 to 250 μM, with dose effect | 31 | 71 |  |  |  |  |  |  |  |  |  |  |  | inhibition at 25 µM ([1]; 25 μM, 0.5 U BTH, read-out: Enzymatic inhibition (mean as a percentage)): 57%; inhibition at 100 µM ([1]; 100 μM, 0.5 U BTH, read-out: Enzymatic inhibition (mean as a percentage)): 73%; inhibition at 200 µM ([1]; 200 μM, 0.5 U BTH, read-out: Enzymatic inhibition (mean as a percentage)): 79%; inhibition at 250 µM ([1]; 250 μM, 0.5 U BTH, read-out: Enzymatic inhibition (mean as a percentage)): 112%
2 | CCCCCCCC/C=C\CCCCCCCC(=O)OC1=C(O)C(C2COC(C)(C)O2)OC1=O (centres unmarked) [Molecule 6, 5-(2,2-dimethyl-1,3-dioxolan-4-yl)-4-hydroxy-2-oxo-2,5-dihydrofuran-3-yl oleate] | strongly inhibit hyaluronidase; also recorded: equivalent to or more active than ascorbyl palmitate | 34 | 106 | greater than that of vitamin C | 7 | 49 | 105 |  |  |  |  |  |  |  | 
3 | CCCCC/C=C\C/C=C\C/C=C\CCCCC(=O)OC1=C(OC(=O)CCCC/C=C\C/C=C\C/C=C\CCCCC)C(C2COC(C)(C)O2)OC1=O (centres unmarked) [Molecule 3, dioctadeca-6,9,12-trienoate of (6Z,6′Z,9Z,9′Z,12Z,12′Z)-2-(2,2-dimethyl-1,3-dioxolan-4-yl)-5-oxo-2,5-dihydrofuran-3,4-diyl] |  |  |  | greater than that of vitamin C |  |  | 20 | 25 | 50 | induce proliferation of the cells but to a lesser extent than molecules 1 and 4 | 25 | 52 | 18 | 85 | 
4 | CCCCCCCC/C=C\CCCCCCCC(=O)OC1=C(OC(=O)CCCCCCC/C=C\CCCCCCCC)C(C2COC(C)(C)O2)OC1=O (centres unmarked) [Molecule 4, dioleate of (Z)-2-(2,2-dimethyl-1,3-dioxolan-4-yl)-5-oxo-2,5-dihydrofuran-3,4-diyl] | strongly inhibit hyaluronidase; also recorded: equivalent to or more active than ascorbyl palmitate | 72 | 111 | greater than that of vitamin C | 44 |  | 53 | -16 | 6 |  | 19 | 51 | 12 | 84 | Proliferation stimulation of dermal papilla cells ([2]; 6.25 μM, 60 h): 113.9%; Number of apoptotic bulbs at D11 (Number of total follicles) (human hair follicle [4]; 15 μM, 11 days of incubation): 6 (12); % apoptosis (human hair follicle [4]; 15 μM, 11 days of incubation, control 75): 50%; Effect on hair degeneration (human hair follicle [4]; 11 days): marked limiting of hair degeneration
5 | CC/C=C\C/C=C\C/C=C\CCCCCCCC(=O)OC1=C(OC(=O)CCCCCCC/C=C\C/C=C\C/C=C\CC)C(C2COC(C)(C)O2)OC1=O (centres unmarked) [Molecule 2, dioctadeca-9,12,15-trienoate of (9Z,9′Z,12Z,12′Z,15Z,15′Z)-2-(2,2-dimethyl-1,3-dioxolan-4-yl)-5-oxo-2,5-dihydrofuran-3,4-diyl] |  |  |  | greater than that of vitamin C |  |  | 20 | 11 | 53 | induce proliferation of the cells but to a lesser extent than molecules 1 and 4 |  |  |  |  | 
6 | CCCCC/C=C\C/C=C\CCCCCCCC(=O)OC1=C(O)C(C2COC(C)(C)O2)OC1=O (centres unmarked) [Molecule 5, (9Z,12Z)-5-(2,2-dimethyl-1,3-dioxolan-4-yl)-4-hydroxy-2-oxo-2,5-dihydrofuran-3-yl octadeca-9,12-dienoate] | strongly inhibit hyaluronidase; also recorded: equivalent to or more active than ascorbyl palmitate | 31 | 76 | greater than that of vitamin C | 35 | 78 | 66 | 4 | 13 |  |  |  |  |  | 
